Data published in US6677350B1, “Beta-fluoroethyl thiourea compounds and use” (priority 1999, dated 2004).
“And” between values parts separate entries of the source, which are not always exact repeats. Equal values may be shown once.

Test system: M. tuberculosis H37Rv (ATCC 27294)
Experiment: In vitro anti-tuberculosis screening, BACTEC 460 radiometric system, percent inhibition of growth
Assay type: cell-based, Mycobacterium tuberculosis
Conditions: Mtb H37Rv; for Activity % inhibition at 12.5 μg/mL (chalcones) / inhibition at 12.5 µg/mL / Activity % Inhibition at 12.5 μg/mL (flavanones) / Activity % inhibition at 12.5 μg/mL (chalcone-like compounds) / Activity % Inhibition at 12.5 μg/mL (flavones) / Activity % Inhibition at 12.5 μg/mL (biflavonoids): BACTEC 12B medium; for inhibition at 12.5 µg/mL: Mycobacterium tuberculosis, read-out: Activity % Inhibition at 12.5 μg/mL (biflavonoids); for Activity % inhibition at 12.5 μg/mL (chalcones) / inhibition at 12.5 µg/mL / Activity % Inhibition at 12.5 μg/mL (flavanones) / Activity % inhibition at 12.5 μg/mL (chalcone-like compounds) / Activity % Inhibition at 12.5 μg/mL (flavones) / Activity % Inhibition at 12.5 μg/mL (biflavonoids) / anti-TB activity in words: 12.5 μg/mL; for inhibition of the growth of Mtb: drug concentration 12.5 μg/mL

## Nc1ccc(C(=O)/C=C/c2ccccc2)cc1 [Compound 13]
  Activity % inhibition at 12.5 μg/mL (chalcones): 5%

## O=c1cc(-c2ccc(Oc3c(O)cc4oc(-c5ccc(O)cc5)cc(=O)c4c3O)cc2)oc2cc(O)cc(O)c12 [Compound 167, Hinokiflavone]
  inhibition at 12.5 µg/mL: 0%

## COc1ccc(C(=O)/C=C/c2cccc(I)c2)c(O)c1 [Compound 43]
  Activity % inhibition at 12.5 μg/mL (chalcones): 47%
  inhibition of the growth of Mtb: 47%

## O=C1c2c(O)cc(O)cc2O[C@H](c2ccc(O)cc2)[C@H]1c1c(O)cc(O)c2c(=O)cc(-c3ccc(O)c(O)c3)oc12 [Compound 171, Morelloflavone]
  inhibition at 12.5 µg/mL: 0%

## O=C1c2ccccc2OC(c2cccc(Cl)c2)C1O (stereo not drawn) [Compound 135]
  Activity % Inhibition at 12.5 μg/mL (flavanones): 63%

## COc1ccc(/C=C/C(=O)c2ccccn2)cc1 [Compound 76]
  Activity % inhibition at 12.5 μg/mL (chalcone-like compounds): 0%

## O=c1c(O)c(-c2ccccc2)oc2cc(Cl)ccc12 [Compound 81]
  Activity % Inhibition at 12.5 μg/mL (flavones): 58%

## COc1ccc(O)c(C(=O)/C=C/c2ccco2)c1 [Compound 69]
  Activity % inhibition at 12.5 μg/mL (chalcone-like compounds): 0%

## COc1ccc(-c2oc3cc(OC)cc(OC)c3c(=O)c2Br)cc1 [Compound 131]
  Activity % Inhibition at 12.5 μg/mL (flavones): 0%

## Suceedaneaflavanone [Compound 169]
  Activity % Inhibition at 12.5 μg/mL (biflavonoids): 0%

## CC(=O)Nc1cccc(/C=C/C(=O)c2ccccc2O)c1 [Compound 17]
  Activity % inhibition at 12.5 μg/mL (chalcones): 0%

## Nc1ccccc1/C=C/C(=O)c1ccc(Br)cc1O [Compound 38]
  Activity % inhibition at 12.5 μg/mL (chalcones): 12%
  inhibition of the growth of Mtb: 8% and 12%

## COc1ccc2c(c1)OC(c1ccc(Cl)cc1)CC2=O (stereo not drawn) [Compound 137]
  Activity % Inhibition at 12.5 μg/mL (flavanones): 48%

## COc1ccc(-c2oc3cc(F)ccc3c(=O)c2O)cc1 [Compound 85]
  anti-TB activity in words: did not change the activity
  Activity % Inhibition at 12.5 μg/mL (flavones): 50%

## COc1cc(OC)c2c(c1)OC(c1cc(OC)c(OC)c(OC)c1)C(Br)(Br)C2=O (stereo not drawn) [Compound 140]
  Activity % Inhibition at 12.5 μg/mL (flavanones): 16%

## COc1ccc(-c2cc(=O)c3c(OC)cc(OC)c(I)c3o2)cc1 [Compound 125]
  Activity % Inhibition at 12.5 μg/mL (flavones): 0%

## O=c1c(I)c(-c2ccccc2)oc2ccccc12 [Compound 127]
  anti-TB activity in words: weakly active or inactive
  Activity % Inhibition at 12.5 μg/mL (flavones): 0%

## Nc1ccc(O)c(C(=O)/C=C/c2ccccc2)c1 [Compound 12]
  Activity % inhibition at 12.5 μg/mL (chalcones): 6%
  inhibition of the growth of Mtb: 6%

## O=c1cc(-c2ccc(Br)cc2)oc2ccccc12 [Compound 97]
  anti-TB activity in words: weakly active or inactive
  Activity % Inhibition at 12.5 μg/mL (flavones): 26%
  inhibition of the growth of Mtb: 26%

## COc1ccc(C2CC(=O)c3c(cc(OC)c(-c4c(OC)cc5c(c4OC)C(=O)CC(c4ccc(OC)cc4)O5)c3OC)O2)cc1 (stereo not drawn) [Compound 157, 6-6′′-Binaringenin hexamethylether]
  anti-TB activity in words: inactive
  Activity % Inhibition at 12.5 μg/mL (biflavonoids): 2%

## COc1ccc(-c2cc(=O)c3cc(C(=O)O)ccc3o2)cc1 [Compound 115]
  Activity % Inhibition at 12.5 μg/mL (flavones): 2%

## O=c1cc(-c2ccccc2)oc2cc(Br)ccc12 [Compound 106]
  anti-TB activity in words: weakly active or inactive
  Activity % Inhibition at 12.5 μg/mL (flavones): 15%

## COc1ccc(/C=C/C(=O)c2cccc(I)c2O)cc1 [Compound 49]
  Activity % inhibition at 12.5 μg/mL (chalcones): 0%
  inhibition of the growth of Mtb: 0%

## COc1ccc(/C=C/C(=O)c2ccc([N+](=O)[O-])cc2)cc1 [Compound 4]
  Activity % inhibition at 12.5 μg/mL (chalcones): 62%

## O=C1CC(c2ccccc2)Oc2cc(F)ccc21 (stereo not drawn) [Compound 143]
  Activity % Inhibition at 12.5 μg/mL (flavanones): 7%

## COc1ccc(C=CC(=O)c2ccc(Cl)cc2O)cc1 [Compound 28]
  Activity % inhibition at 12.5 μg/mL (chalcones): 57%
  inhibition of the growth of Mtb: 57%

## O=c1cc(-c2cccc(Cl)c2)oc2ccccc12 [Compound 121]
  anti-TB activity in words: weakly active or inactive
  Activity % Inhibition at 12.5 μg/mL (flavones): 0%
  inhibition of the growth of Mtb: 0%

## O=C(/C=C/c1ccccc1)c1cc(I)ccc1O [Compound 42]
  Activity % inhibition at 12.5 μg/mL (chalcones): 51%
  inhibition of the growth of Mtb: 51% and 52%

## O=c1cc(-c2cccc(I)c2)oc2ccccc12 [Compound 101]
  anti-TB activity in words: weakly active or inactive
  Activity % Inhibition at 12.5 μg/mL (flavones): 22%

## CCOc1cc(O)c(C(=O)C=Cc2ccccc2)c(OCC)c1 [Compound 14]
  Activity % inhibition at 12.5 μg/mL (chalcones): 0%

## Nc1ncccc1C=CC(=O)c1cc(Cl)ccc1O [Compound 72]
  Activity % inhibition at 12.5 μg/mL (chalcone-like compounds): 0%

## O=C1CC(c2cccc(Br)c2)Oc2ccccc21 (stereo not drawn) [Compound 134]
  Activity % Inhibition at 12.5 μg/mL (flavanones): 73%
  inhibition of the growth of Mtb: 73%
